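Each compound was tested at five concentrations against cells in 96-well plates for 48 hours. The concentration for 50% growth inhibition is given as GI50.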 Activity calls are given as the source filed them. Rule as the data show it: active = GI50 up to about 1.1 µM and inactive = higher.
What was measured:
Assay in all cases: NCI anticancer screen, dose series, 48 h
[1] = tested on: A498
[2] = tested on: ACHN
[3] = tested on: CAKI-1
[4] = tested on: DU-145
[5] = tested on: HCT-15
[6] = tested on: HT-29
[7] = tested on: Hs-578T
[8] = tested on: K562
[9] = tested on: MOLT-4
[10] = tested on: NCI/ADR-RES
[11] = tested on: SF-295
[12] = tested on: SK-MEL-2
[13] = tested on: SK-OV-3
[14] = tested on: SN12C
[15] = tested on: SNB-19
[16] = tested on: SW-620
[17] = tested on: T47D
[18] = tested on: HOP-92
[19] = tested on: SF-539

Row | Compound | GI50 [1] | GI50 [2] | GI50 [3] | GI50 [4] | GI50 [5] | GI50 [6] | GI50 [7] | GI50 [8] | GI50 [9] | GI50 [10] | GI50 [11] | GI50 [12] | GI50 [13] | GI50 [14] | GI50 [15] | GI50 [16] | GI50 [17] | GI50 [18] | GI50 [19]
1 | CC(C)N/C(=N\C#N)NS(=O)(=O)c1cnccc1Nc1ccc(Cl)cc1 | > 100 µM (inactive) | > 100 µM (inactive) | > 100 µM (inactive) | > 100 µM (inactive) | > 100 µM | > 100 µM (inactive) | > 100 µM (inactive) | > 100 µM (inactive) | > 100 µM (inactive) | > 100 µM (inactive) | > 100 µM (inactive) | > 100 µM (inactive) | > 100 µM (inactive) | > 100 µM (inactive) | > 100 µM (inactive) | > 100 µM (inactive) | > 100 µM (inactive) |  | 
2 | C=CC1(c2ccc3ccccc3c2)OCC(CC)(CC)CO1 |  | 20.5 µM (inactive) |  | 45.1 µM (inactive) | 17.9 µM | 20.3 µM (inactive) | 18.7 µM (inactive) | 25.1 µM (inactive) | 18.2 µM (inactive) | 30.1 µM (inactive) | 25.8 µM (inactive) | 17.7 µM (inactive) | 53.1 µM (inactive) | 21.7 µM (inactive) | 17.3 µM (inactive) | 14.9 µM (inactive) | 22.5 µM (inactive) | 23.4 µM (inactive) | 14.3 µM (inactive)
3 | COc1ccc(/C=C/C(=O)c2cc(CN(C)C)c(O)c(CN(C)C)c2)cc1 | 19.7 µM (inactive) | 27.9 µM (inactive) | 47.5 µM (inactive) | 34.2 µM (inactive) | 40 µM | 27.7 µM (inactive) | 43.6 µM (inactive) | 26.7 µM (inactive) | 28.2 µM (inactive) | 33.1 µM (inactive) | 26.8 µM (inactive) |  |  | 21.9 µM (inactive) | 29.9 µM (inactive) | 36.9 µM (inactive) | 19.6 µM (inactive) |  | 45.3 µM (inactive)
4 | C=C(CCOC)CCC1CCCCC/C1=N\N(C)C (centres undefined) | > 100 µM (inactive) | > 100 µM (inactive) | > 100 µM (inactive) | > 100 µM (inactive) | > 100 µM | > 100 µM (inactive) | > 100 µM (inactive) | > 100 µM (inactive) | > 100 µM (inactive) | > 100 µM (inactive) | > 100 µM (inactive) | > 100 µM (inactive) | > 100 µM (inactive) | > 100 µM (inactive) | > 100 µM (inactive) | > 100 µM (inactive) | > 100 µM (inactive) |  | 
5 | CCOC(=O)c1sc2c(c1O)c(=O)n(-c1ccccc1)c(=S)n2-c1ccccc1 |  | 81.1 µM (inactive) |  | 71.8 µM (inactive) | 78 µM | 80.5 µM (inactive) | > 100 µM (inactive) | 42.8 µM (inactive) |  |  | 35.5 µM (inactive) | > 100 µM (inactive) |  | 61.1 µM (inactive) | > 100 µM (inactive) | 99.3 µM (inactive) | > 100 µM (inactive) | 86.1 µM (inactive) | 
6 | COc1cccc(/C=N/C(/N=C/c2cccc(OC)c2O)c2cccc(OC)c2O)c1O |  | 21.5 µM (inactive) | 19.6 µM (inactive) | 18.4 µM (inactive) | 7.5 µM | 24.4 µM (inactive) | 17.6 µM (inactive) | 24.7 µM (inactive) |  | 19.6 µM (inactive) | 23.6 µM (inactive) | 14.8 µM (inactive) | 26 µM (inactive) | 19.2 µM (inactive) | 22.6 µM (inactive) | 27.5 µM (inactive) | 15.2 µM (inactive) | 31.7 µM (inactive) | 20.1 µM (inactive)
7 | CCOC(=O)c1ccc(Nc2nc3ccccc3nc2C(=O)OCC)cc1 |  | > 100 µM (inactive) | > 100 µM (inactive) | > 100 µM (inactive) | > 100 µM | > 100 µM (inactive) | 59.6 µM (inactive) | > 100 µM (inactive) | > 100 µM (inactive) | > 100 µM (inactive) |  | > 100 µM (inactive) | > 100 µM (inactive) | > 100 µM (inactive) | > 100 µM (inactive) |  | > 100 µM (inactive) | 43.1 µM (inactive) | > 100 µM (inactive)
8 | COc1ccc(-n2c(C)nc3ccc(NC4OC(COC(C)=O)C(OC(C)=O)C(OC(C)=O)C4OC(C)=O)cc3c2=O)cc1 (centres undefined) | > 100 µM (inactive) | > 100 µM (inactive) | 19.7 µM (inactive) | > 100 µM (inactive) | 76 µM | 53.3 µM (inactive) | 49.8 µM (inactive) | 36.7 µM (inactive) | 27.4 µM (inactive) | > 100 µM (inactive) | > 100 µM (inactive) | > 100 µM (inactive) |  | 32 µM (inactive) | > 100 µM (inactive) | 39.1 µM (inactive) | > 100 µM (inactive) |  | 
9 | COc1ccc(P2(=S)OC(C)(C)C(C)(C)O2)cc1 |  | > 100 µM (inactive) | 50.9 µM (inactive) | > 100 µM (inactive) | > 100 µM | > 100 µM (inactive) | > 100 µM (inactive) | > 100 µM (inactive) | > 100 µM (inactive) | > 100 µM (inactive) | > 100 µM (inactive) | > 100 µM (inactive) |  | > 100 µM (inactive) | > 100 µM (inactive) | > 100 µM (inactive) | 6.93 µM (inactive) | > 100 µM (inactive) | > 100 µM (inactive)
10 | Cc1ccc(C)c2c1NC(=O)/C2=N\Nc1ccccc1[N+](=O)[O-] | > 100 µM (inactive) | > 100 µM (inactive) | > 100 µM (inactive) | > 100 µM (inactive) | > 100 µM |  | 35.7 µM (inactive) | 74.1 µM (inactive) | > 100 µM (inactive) |  | > 100 µM (inactive) | 78 µM (inactive) | > 100 µM (inactive) | > 100 µM (inactive) | > 100 µM (inactive) | > 100 µM (inactive) | > 100 µM (inactive) | 40.7 µM (inactive) | 98.2 µM (inactive)
11 | CC1C(c2cc(C(C)(C)C)c(O)c(C(C)(C)C)c2)c2cc3c(cc2OC1N1CCOCC1)OCO3 (centres undefined) |  | 7.69 µM (inactive) |  | 30.1 µM (inactive) | > 10 µM | 19.2 µM (inactive) | 3.13 µM (inactive) | 27.1 µM (inactive) | > 100 µM (inactive) | 27.4 µM (inactive) | 15.3 µM (inactive) | 23.7 µM (inactive) |  | 33.8 µM (inactive) | 15.7 µM (inactive) | 42.2 µM (inactive) | 21.4 µM (inactive) |  | 12.9 µM (inactive)
12 | CS/C(=N\C#N)S/C=C/C(=O)c1ccc(Cl)cc1 |  | 34.4 µM (inactive) | 6.52 µM (inactive) | 25.6 µM (inactive) | 30.2 µM | 21.8 µM (inactive) | 32.7 µM (inactive) | 10.5 µM (inactive) | < 0.01 µM (active) | 27.7 µM (inactive) | 29.1 µM (inactive) | 17.6 µM (inactive) | 42.7 µM (inactive) | 26.2 µM (inactive) | 42 µM (inactive) | 15.6 µM (inactive) | 25 µM (inactive) | 88.5 µM (inactive) | 20.8 µM (inactive)
13 | N#CCc1nc(-c2ccccc2)n[nH]1 |  | > 100 µM (inactive) | > 100 µM (inactive) | > 100 µM (inactive) | > 100 µM | > 100 µM (inactive) | 77.4 µM (inactive) | 76.6 µM (inactive) | > 100 µM (inactive) | > 100 µM (inactive) | > 100 µM (inactive) | > 100 µM (inactive) | > 100 µM (inactive) | > 100 µM (inactive) | 74 µM (inactive) | > 100 µM (inactive) | > 100 µM (inactive) |  | > 100 µM (inactive)
14 | Fc1ccccc1CN1COc2c(cc(Cl)c3cccnc23)C1 |  | 0.533 µM (active) | 1.65 µM (inactive) | 2.62 µM (inactive) | 0.0165 µM | 7.85 µM (inactive) | 3.15 µM (inactive) | 1.3 µM (inactive) | 0.239 µM (active) | 0.0425 µM (active) | 0.726 µM (active) | 3.93 µM (inactive) | 6 µM (inactive) | 0.215 µM (active) | 2.24 µM (inactive) | 3.08 µM (inactive) | 3.6 µM (inactive) | 3.61 µM (inactive) | 1.22 µM (inactive)
15 | c1ccc2c(c1)OC(N1CCCC1)c1cnc(N3CCOCC3)nc1-2 (centres undefined) | 18.7 µM (inactive) | 38.2 µM (inactive) | 27.8 µM (inactive) | 66.8 µM (inactive) | 45.4 µM | 53.6 µM (inactive) | 51.1 µM (inactive) | 62.5 µM (inactive) | 32.9 µM (inactive) |  | 30.4 µM (inactive) |  | 35.2 µM (inactive) | 32 µM (inactive) | 53 µM (inactive) | 91 µM (inactive) | 3.54 µM (inactive) | 16.8 µM (inactive) | > 100 µM (inactive)
16 | COC1(OC)CC(CO)(COc2cc(Cl)nc(N)n2)C1 |  | > 100 µM (inactive) | > 100 µM (inactive) | > 100 µM (inactive) | > 100 µM | > 100 µM (inactive) | > 100 µM (inactive) | > 100 µM (inactive) | > 100 µM (inactive) | > 100 µM (inactive) | > 100 µM (inactive) | > 100 µM (inactive) | > 100 µM (inactive) | > 100 µM (inactive) | > 100 µM (inactive) | > 100 µM (inactive) | > 100 µM (inactive) | > 100 µM (inactive) | > 100 µM (inactive)
17 | CC12ON(P(=O)(c3ccccc3)c3ccccc3)C(C)(c3ccccc31)c1ccccc12 |  | > 100 µM (inactive) | > 100 µM (inactive) | > 100 µM (inactive) | > 100 µM | > 100 µM (inactive) | > 100 µM (inactive) | 88.3 µM (inactive) | 32.7 µM (inactive) | > 100 µM (inactive) | > 100 µM (inactive) | > 100 µM (inactive) | > 100 µM (inactive) | > 100 µM (inactive) | > 100 µM (inactive) | > 100 µM (inactive) | 51.3 µM (inactive) | > 100 µM (inactive) | > 100 µM (inactive)
